The target of one data set is T1, CCR1 (Homo sapiens, UniProt P32246).
T1 sequence (P32246 1-355): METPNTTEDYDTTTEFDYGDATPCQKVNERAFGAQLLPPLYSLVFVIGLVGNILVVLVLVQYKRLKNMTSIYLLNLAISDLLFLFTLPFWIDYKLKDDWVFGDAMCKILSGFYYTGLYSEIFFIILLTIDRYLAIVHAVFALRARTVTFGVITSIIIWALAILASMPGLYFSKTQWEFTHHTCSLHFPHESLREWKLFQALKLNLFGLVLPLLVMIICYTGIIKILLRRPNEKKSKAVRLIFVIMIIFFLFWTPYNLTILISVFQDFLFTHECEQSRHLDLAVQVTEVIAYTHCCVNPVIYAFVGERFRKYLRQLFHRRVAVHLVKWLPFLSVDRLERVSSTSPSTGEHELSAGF
Nature of the data set: effects on the activation of CCR1 receptor. The conditions noted are these: at the concentration of 10,000 nM.

The next data set concerns the target CXCR4 (Homo sapiens, UniProt P61073). Briefly: effects on the activation of CXCR4 receptor. Conditions: at the concentration of 10,000 nM.
Another data set deals with CCR5 receptor (Homo sapiens, UniProt P51681). Briefly: [35S]GTPγS binding assay. Type of data set: biochemical. The text has this:
[^35S]GTPγS binding assay
CCR5 receptor binds to agonists and changes its conformation which enables it to interact with and activate G protein, a heterotrimer which consists of subunits α and βγ. The capability of G protein α subunit binding to GTP depends on the effect between CCR5 and the agonists, therefore, the amount of α subunit bound GTP should reflect the agonists activity on the CCR5 receptor. In the GTPγS binding assay, [^35S]GTPγS is resistant to the GTPase activity of α subunit, and thus cannot be hydrolyzed when bound to G protein, making it accurate to reflect the receptor activation. Radiolabled [^35S]GTPγS can also serve as marker for detection in place of GTP. When CCR5 is not activated, α subunit is bound to GDP, but when CCR5 is activated, α subunit binds to [^35S]GTPγS, therefore, measurement of the number of the α subunit-bound ^35S-GTPγS can reflect the CCR5 activation level.
CCR5 activation of G-protein was measured according to assays below:
Permanent cell line expressing CHO of CCR5 (available at Euroscreen S.A., Belgium) was lysed by lysis buffer (5 mM Tris HCl, pH 7.5, 5 mM EDTA and 5 mM EGTA), and centrifuged at 15,000×g for 10 min. Cell membrane was resuspended with reaction buffer (5 mM Tris HCl, pH 7.5, 5 mM MgCl2, 1 mM EGTA, 100 mM NaCl), and protein concentrations were determined using Bioford assay (Bio-rad). [^35S]GTPγS binding assay was performed in the 100 μl reaction buffer system, which contains 10 ug membrane protein, 40 uM GDP and 0.5 nM [^35S]GTPγS (1200 Ci/mmol). After adding the study compounds, the system was vortexed and placed on ice for 5 min, and then CCR5 agonist was added (10 nM RANTES or 30 nM MIP1β). After vortexing, the reaction tubes were incubated at 30° C. for 1 h. After the reaction was complete, the reaction tubes were placed on ice and diluted with PBS to terminate the reaction. After suction through the GF/C filter membrane under vacuum, the membrane bound radioactivity was measured with a scintillation counter. Basal binding was measured without presence of agonist, and non-specific binding was measured in the presence of 10 mM nonisotopical GTPγS. The binding ratio of [^35S]GTPγS was calculated according to 100×[c.p.m.sample−c.p.m. non-specific]/[c.p.m.basal−c.p.m. non-specific]. IC50 was the compound concentration at which half of the [^35S]GTPγS binding induced by 10 nM RANTES or 30 nM MIP1β was inhibited, and the value was obtained from the concentration-inhibition curve (6-7 points for concentrations of each compound).

The next data set can be described thus: MTT cytotoxicity assay. Type of data set: cell-based. The conditions noted are these: human, peripheral blood mononuclear cells (PBMC) and Jurkat cells; MTT. On the procedure: (§1) C. MTT Cytotoxicity Assay
(§2) Cells were prepared as single cell suspension, and cell densities were adjusted according to the cell size and cell features. Cells were inoculated with 100 ul culture media into 96 well plates, and incubated in 37° C. incubator (5% CO2, saturated humidity). The seeding densities were as follows: peripheral blood monouclear cells (PBMC) 10^5 cells /well, Jurket 4×10^4 cells/well. 24 h after cell inoculation, the compounds to be tested were added and incubated with cells. 48 h after inoculation, 10 μl MTT (Sigma, USA, 5 mg/ml, diluted with PBS and stored at −20° C.) was added to each well, and incubated for another 4 h in 37° C. incubator. Then add 50 μl formazane solvent (10%SDS-5%isopropanol−0.01M HCl) and incubate overnight. Determine OD570/OD630 nm at spectrophotometer, and calculate CC50 according to the inhibition curve.
In general terms: Formazan colour is commonly taken as a measure of viable cells.

For data set [1], the system named is peripheral blood monouclear cells (PBMC), Jurket. Briefly: MTT cytotoxicity assay. Type of data set: cell-based. Conditions: at 10,000 nM. On the procedure: as §1, §2
Data set [2] concerns HEK 293 cells expressing human CCR5 receptors (293CCR5). Nature of the data set: Chemotaxis assay. Type of data set: cell-based. Conditions: chemotaxis caused by 10 nM RANTES, read-out: IC50 on cell chemotaxis.
Procedure: The procedures were as follows:
The assay is performed with a 48 well plate (AP48, Neuroprobe Inc., USA) and 8 uM filter membrane (25×80 mm). The filter membrane was pre-immersed in rat tail collagen for at least 2 h. The filter membrane was taken out and dried on a super-clean bench, then the filter membrane was immersed in 0.1% BSA-MEM. HEK 293 cells expressing human CCR5 receptors (293CCR5) (available at Euroscreen S.A., Belgium) were digested with D.T. for 1 min, and pelleted by centrifugation at 200 g. Resuspend the cells in 0.1% BSA-MEM, count and dilute the cell suspension to 3×10^6 cells/ml. Fill each well with 26.5 μl tll of a chemokine dilution or 1% BSA MEM, place the filter membrane and cover a lid on the well, add 50 μl of the cells suspension to each well. When testing the compound antagonism, the compounds to be tested were added to the cell suspension, and pre-incubated at 37° C. for 20 min. Then place the plate in 37° C. incubator, and incubate for 6 h. Take out of the filter membrane and remove the cells in the well, fix the filter membrane in 4% polyformaldehyde solution at 4° C. overnight. The filter membrane was taken out the next day and stained with crystal violet for at least 2 h, then wash with water and allow it to dry. Scan the filter membrane, and calculate the shades with Scion Image. […]
Another data set is described as follows: water solubility. Type of data set: physicochemical. The conditions noted are these: mesylate compared with II-a-a.
Setting [3] is: Table I, [35S]GTPγS binding, read-out: IC50.
Setting [4] is: [35S]GTPγS binding initiated by 10 nM RANTES, read-out: IC50(nM) ± S.E.

Where two headings read alike, the source gives them in different places.

As usually defined, the IC50 is the concentration needed to halve the response being measured. As usually defined, the CC50 is the concentration giving 50% cytotoxicity. Read a low CC50 as harm at low concentration.

CXCR4, sequence (P61073 whole entry, species assumed): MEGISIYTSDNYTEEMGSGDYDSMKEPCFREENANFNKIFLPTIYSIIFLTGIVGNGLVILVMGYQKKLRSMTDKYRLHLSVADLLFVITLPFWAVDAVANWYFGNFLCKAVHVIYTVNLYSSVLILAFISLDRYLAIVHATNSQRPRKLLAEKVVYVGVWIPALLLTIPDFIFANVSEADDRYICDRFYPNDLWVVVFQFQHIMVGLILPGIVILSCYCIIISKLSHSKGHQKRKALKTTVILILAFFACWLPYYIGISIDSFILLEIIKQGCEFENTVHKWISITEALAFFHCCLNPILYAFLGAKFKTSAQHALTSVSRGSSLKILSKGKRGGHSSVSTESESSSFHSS
CCR5 receptor, sequence (P51681 whole entry): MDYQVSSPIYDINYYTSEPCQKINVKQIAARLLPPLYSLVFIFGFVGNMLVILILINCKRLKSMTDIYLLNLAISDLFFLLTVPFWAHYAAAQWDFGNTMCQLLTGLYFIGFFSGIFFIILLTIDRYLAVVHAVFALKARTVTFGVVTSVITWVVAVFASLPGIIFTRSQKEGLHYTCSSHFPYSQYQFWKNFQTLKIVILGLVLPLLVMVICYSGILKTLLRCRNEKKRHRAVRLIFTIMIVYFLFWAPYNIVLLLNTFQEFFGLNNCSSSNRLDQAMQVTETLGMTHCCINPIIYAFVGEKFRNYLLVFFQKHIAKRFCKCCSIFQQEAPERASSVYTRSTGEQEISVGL

Consider `C=CCN(C(=O)OCc1ccc([N+](=O)[O-])cc1)C1CCN(CC2CN(C(=O)c3ccccc3)CC2(O)c2ccccc2)CC1` (stereo not drawn) [III-a-b, 4-nitrobenzyl allyl(1-((1-benzoyl-4-hydroxy-4-phenylpyrrolidin-3-yl)methyl)piperidin-4-yl) carbamate], for which the “activation or antagonism of CCR1 receptor” value at CCR1 is given as “do not activate or antagonize”. Further, the “activation or antagonism of CXCR4 receptor” value on CXCR4 was “do not activate or antagonize”. Besides, the half-inhibitory concentration (IC50) at CCR5 receptor (setting [3]) and on CCR5 receptor (setting [4]) was 9.7 ± 0.7 nM throughout. The compound further displayed a 50% cytotoxic concentration (CC50) at 24 h in “MTT cytotoxicity assay” of about 30000 nM. The cytotoxicity on cells entry in data set [1] is “no significant cytotoxicity”.
On to `C=CCN(C(=O)OCc1ccc([N+](=O)[O-])cc1)C1CCN(CC2CN(C(=O)c3ccccc3I)CC2(O)c2ccccc2)CC1` (stereo not drawn) [III-a-c, 4-nitrobenzyl allyl(1-((4-hydroxy-1-(2-iodobenzoyl)-4-phenylpyrrolidin-3-yl)methyl)piperidin-4-yl)carbamate], for which the “activation or antagonism of CCR1 receptor” value on CCR1 is on record as “do not activate or antagonize”. For the same compound, on CXCR4, the “activation or antagonism of CXCR4 receptor” value is on record as “do not activate or antagonize”. Besides, the IC50 on CCR5 receptor (setting [3]) and at CCR5 receptor (setting [4]) was 24.9 ± 8.8 nM each time. In addition, the CC50 at 24 h in “MTT cytotoxicity assay” was about 30000 nM. Further, the cytotoxicity on cells result in data set [1] is given as “no significant cytotoxicity”.
Turning to `C=CCN(C(=O)OCc1ccc([N+](=O)[O-])cc1)C1CCN(CC2CN(C(=O)c3cccc4ccccc34)CC2(O)c2ccccc2)CC1` (stereo not drawn) [III-a-d, 4-nitrobenzyl 1-((1-(1-naphthoyl)-4-hydroxy-4-phenylpyrrolidin-3-yl)methyl)piperidin-4-yl(allyl)carbamate], on CCR1, the “activation or antagonism of CCR1 receptor” value is given as “do not activate or antagonize”. Moreover, the “activation or antagonism of CXCR4 receptor” value at CXCR4 was “do not activate or antagonize”. In addition, the IC50 at CCR5 receptor (setting [3]) and on CCR5 receptor (setting [4]) was 26.8 ± 2 nM in each case. Also, in the data set “MTT cytotoxicity assay”, the CC50 at 24 h is about 30000 nM. Besides, the cytotoxicity on cells entry in data set [1] is on record as “no significant cytotoxicity”.
Regarding `C=CCN(C(=O)OCc1ccc([N+](=O)[O-])cc1)C1CCN(CC2CN(C(=O)C3CCCC3)CC2(O)c2ccccc2)CC1` (stereo not drawn) [III-a-e, 4-nitrobenzyl allyl(1-((1-(cyclopentanecarbonyl)-4-hydroxy-4-phenylpyrrolidin-3-yl)methyl)piperidin-4-yl)carbamate], the “activation or antagonism of CCR1 receptor” value at CCR1 is recorded as “do not activate or antagonize”. Besides, the IC50 in data set [2] was about 30 nM; at CCR5 receptor (setting [3]) it was 5.3 ± 0.6 nM; on CCR5 receptor (setting [4]), 5.3 ± 0.6 nM. Also, the “activation or antagonism of CXCR4 receptor” value on CXCR4 is “do not activate or antagonize”. The same compound came in with a CC50 at 24 h in “MTT cytotoxicity assay” of about 30000 nM. Also, in data set [1], the cytotoxicity on cells result was “no significant cytotoxicity”.
Consider `C=CCN(C(=O)OCc1ccc([N+](=O)[O-])cc1)C1CCN(CC2CN(C(=O)C3CCCCC3)CC2(O)c2ccccc2)CC1` (stereo not drawn) [III-a-f, 4-nitrobenzyl allyl(1-((1-(cyclohexanecarbonyl)-4-hydroxy-4-phenylpyrrolidin-3-yl)methyl)piperidin-4-yl)carbamate], for which the “activation or antagonism of CCR1 receptor” value on CCR1 is given as “do not activate or antagonize”. In addition, the “activation or antagonism of CXCR4 receptor” value on CXCR4 was “do not activate or antagonize”. In addition, the IC50 at CCR5 receptor (setting [3]) was found to be 7.3 nM; on CCR5 receptor (setting [4]), 7.3 ± 0.6 nM. This compound also had a CC50 at 24 h in the data set “MTT cytotoxicity assay” of about 30000 nM. Further, the cytotoxicity on cells entry in data set [1] was “no significant cytotoxicity”.
As to `CCN(C(=O)OCc1ccccc1)C1CCN(CC2CN(Cc3ccccc3)CC2(O)c2ccccc2)CC1` (stereo not drawn) [mesylate of II-a-a], the water solubility increase entry in “water solubility” is given as “about 10 fold”. In addition, the IC50 at CCR5 receptor (b360, read-out: IC50) is 342 ± 72.5 nM.
